The text below walks through data of article PMC9098913, “In vitro reconstitution of Escherichia coli divisome activation” (Nature Communications, 2022).

Assay [1] is described as follows: Membrane off-binding rate (koff) of FtsA from FRAP. Also noted: Off binding rate koff: unit not given here. Particulars: Fig. S4i. The text has this: We could also use the data from these bleaching experiments to quantify the membrane-binding kinetics and diffusion of membrane-bound proteins by analysing the change of the fluorescence profile during recovery.
Equimolar concentrations of Cy3- and Cy5-labelled FtsA, supplemented with 20% unlabelled FtsA were used to study FRET and FRAP. Five pre-bleach frames were acquired, followed by acceptor photobleaching of a rectangular ROI with 40% 641 nm laser power and a dwell size of 1 µs/pixel, 75% overlapping lines. The recovery of the signal or the increase in donor intensity were measured with either two frames or one frame per second.
Bleaching the acceptor dye leads to an increase in the donor intensity, which can be used to quantify the Foerster Resonance energy transfer (FRET)[48]. FRET efficiency was quantified with E%=Ipost/Ipost+Ipre⋅100 , where Ipost is the intensity of the […] and Ipre is the […]. […] To extract the contribution of both processes, we adjusted a routine recently published by Gerganova et al.[33]. In short, the code provides the contribution of both modes of recovery by analysing the shape of the fluorescence recovery profile. […] Contribution of diffusion leads to a change of the slope of the outer borders of the bleached region (S4h right). Thus, by measuring the change of the slope of the border recovery, diffusion and simple on/off binding can be distinguished. We developed “FRAPdiff”, a graphical user interface, which uses the original fit routine by David Rutkowski. It can be used directly on.tiff movies with annotated bleach regions as ImageJ ROIs. In addition, we added optional bleach correction, user selectable projection axis (x or y), and optional mirroring of the recovery profiles, if bleaching was not symmetric. The original fit routine for estimating the recovery and diffusion dynamics can be found at https://github.com/davidmrutkowski/1DReflectingDiffusion. FRAPdiff is available at 10.5281/zenodo.6400639[49] under the GPLv3 open-source license.

The test system of assay [2] is FtsZ. Particulars: […] Tris-NTA; p-value 3.86 × 10^−4; three repeats. As for the experimental part: (§1) Co-treadmilling of FtsA with FtsZ relies on the dynamic exchange of FtsA on the membrane. […] To investigate the respective contributions of membrane binding kinetics and FtsA self-interaction on the colocalization dynamics with FtsZ, we wanted to create variants of the two FtsA proteins that are permanently attached to the membrane. […] Accordingly, in these experiments the proteins only differ in their tendency to form oligomers.
(§2) To study colocalization of His-tagged variants of FtsA, 0.5–1 µM of Cy5 labelled His-tagged FtsAs were added to the chamber, incubated for 20 min and washed 6x with reaction buffer. […] To control the density of membrane-bound FtsA, SUVs without and with Tris-NTA lipids were mixed to obtain the respective Tris-NTA concentrations. To perform FRET/FRAP experiments, equimolar concentrations of Cy3 and Cy5 labelled His-tagged FtsAs (total 0.5–1 µM) or His-SUMO-Cys were added to a chamber and treated as above. […] FRAP experiments were performed as described before.
Time-lapse videos were first intensity-corrected and contrast-enhanced to avoid bleaching effects and simplify subsequent analysis. To remove contributions of X–Y drift, the videos were processed with the Linear Stack Alignment with SIFT plugin. Proper alignment was checked with the 3TP align plugin (J. A. Parker; Beth Israel Deaconess Medical Center, Boston). Subsequently, regions of interest (ROIs) in the center of the stacks were chosen for colocalization analysis. The Pearson’s correlation coefficient (PCC) was quantified with the Image CorrelationJ 1o plugin. To extract information about the relative ratio of FtsZ/FtsA molecules (slope of linear regression), we also used the Image CorrelationJ 1o plugin. As an output, the plugin provides a scatterplot of FtsZ vs FtsA intensities, to which we fitted a linear slope y=k⋅x+d , where k is the slope and d the offset. The slope was used as an estimate for the ratio of FtsA molecules below FtsZ filaments.

Assay [3] concerns FtsZ. Particulars: […] Tris-NTA; p-value […] 10^−4 (vs WT-His6); 7.78 × 10^−5 (vs R286W); three repeats. As for the experimental part: as §1, §2
Treadmilling dynamics, were quantified using an automated image analysis protocol previously developed by our group. To visualize colocalization of the co-treadmilling FtsZ & FtsA filaments, we used dual-colour videos obtained at an acquisition rate of one frame per 2 s. The two channels were aligned using FIJI’s 3TP align plugin. Both channels were then subjected to the image subtraction protocol and colocalization was measured as described above.

Take “FtsA-His6: FtsA WT (1-405) with amphipathic helix replaced by C-terminal His-tag”: the “Off binding rate koff” value is on record as 0.0359 in assay [1] (0.10 % Tris-NTA lipids, + FtsZ, summary value); 0.020 in assay [1] (0.10 % Tris-NTA lipids, replicate 1); 0.006 in assay [1] (0.10 % Tris-NTA lipids, replicate 2); 0.0131 in assay [1] (0.10 % Tris-NTA lipids, without FtsZ, summary value); 0.0068 in assay [1] (0.40 % Tris-NTA lipids, + FtsZ, summary value); 0.0123 in assay [1] (0.40 % Tris-NTA lipids, without FtsZ, summary value). Also, the “Off binding rate koff” value in assay [1] (0.60 % Tris-NTA lipids, + FtsZ, summary value) is 0.0048; in assay [1] (0.60 % Tris-NTA lipids, without FtsZ, summary value) it was 0.0097; in assay [1] ([…] Tris-NTA lipids, + FtsZ, summary value), 0.0182; in assay [1] ([…] Tris-NTA lipids, replicate 1), 0.0017; in assay [1] ([…] Tris-NTA lipids, replicate 2) it was 0.018; in assay [1] ([…] Tris-NTA lipids, without FtsZ, summary value) it was 0.0098. Moreover, in the assay with FtsZ [2], the “PCC His-tagged FtsA/FtsZ” value is on record as 0.13 ± 0.06. The “PCCdiff His-tagged FtsA/FtsZ” value in the assay on FtsZ [3] came to 0.07 ± 0.04.
